Experimental data as given in US9034863B2, “Compositions and methods for inhibiting entry of a hepatic virus” (The Board of Trustees of the University of Illinois, priority 2008, dated 2015).
“Also recorded” adds a separate entry of the source.

How the values were obtained:
[1] = tested on: HCV genotype 1b subgenomic replicon; assay: HCV sg1b replicon RNA replication in Huh7 cells, RT-qPCR; format: cell-based, Hepatitis C virus (HCV); conditions: increasing doses, 72 hours
[2] = tested on: HCV; assay: HCV infection initiation in chimeric mice transplanted with human hepatocytes; format: in vivo
[3] = tested on: Huh7 cells; assay: Cytotoxicity assay (adenylate kinase release, TOXILIGHT); format: cell-based, human
Text: The […] Plus Cell Proliferation assay kit (Lonza, Walkersville, Md.), which incorporates bioluminescent detection of cellular ATP as a measure of cell viability and proliferation, was used according to the manufacturer's instructions. Briefly, mock-treated and drug-treated cultures were lysed in Cell Lysis reagent for […]. One hundred μl of culture medium was transferred to white 96-well plates (BD Biosciences) containing ATP detection reagent and luminescence, expressed as relative light units (RLU), was measured (Fluostar OPTIMA). To assess drug-induced cellular toxicity, a bioluminescence-based assay (The TOXILIGHT BioAssay Kit, Lonza) that measures adenylate kinase (AK) released from damaged cells was used as per the manufacturer's instructions. […] One hundred μl of AK detection reagent was then added to each well, and luminescence (RLU) was measured (Fluostar OPTIMA).
To ensure that the inhibition observed was not due to ezetimibe-induced changes in cell proliferation or cytotoxicity, cellular ATP was measured as a read-out of Huh7 cell viability and proliferation and cellular toxicity by adenylate kinase release following treatment with increasing doses of ezetimibe. […] Furthermore, to test the specificity of the observed HCV inhibition, the effect of ezetimibe on entry of another flavivirus, Dengue virus (DNV), was assessed.

[4] = tested on: HCVcc JFH-1; assay: Chronic HCVcc infection in growing Huh7 cells, long-term treatment, RT-qPCR (FIG. 2); format: cell-based, Hepatitis C virus (HCV); conditions: alone, throughout ~70 days of treatment
Procedure: Cultures of growing Huh7 cells were inoculated with HCVcc JFH-1 at an MOT of 0.01 FFU/cell. Infected cultures were maintained for an additional 10 days to allow HCV RNA to reach steady-state levels. FIG. 2A, Cultures were mock treated, treated with ezetimibe alone (30 μM), IFN-α (100 U/ml) alone, or ezetimibe (30 μM) plus IFN-α (100 U/ml) in combination. Treatments were maintained as cultures were passaged. FIG. 2B, After 70 days IFN-α or combination ezetimibe plus IFN-α treatment, treatment was either continued (open shapes) or discontinued (filled shapes). […] Results are graphed as means±s.e.m. for triplicate samples. The data presented are representative of two independent experiments.
For experiments in growing cells, Huh7 cells seeded at 1×10^6 cells in a T75 cell culture flask (Corning) were infected with JFH-1 HCVcc at a MOI of 0.01 FFU/cell and subsequently cultured for 10 days to allow HCV RNA to reach steady-state levels. On day 10 post-infection, cells were split 1:4 and re-plated into T25 culture flasks (Corning). Twenty four hours post seeding, individual flasks were mock-treated with cDMEM or treated with cDMEM containing IFN-α (100 U/ml), ezetimibe (30 μM) or a combination of both IFN-α (100 U/ml) and ezetimibe (30 μM). Throughout the course of the experiment, fresh media with treatments was replenished every two days and cells were trypsinized just before reaching confluence and re-plated at a dilution of 1:3 to maintain active cell growth. […]
Total cellular RNA was purified using an ABI PRISM™ 6100 Nucleic Acid PrepStation (Applied Biosystems), as per the manufacturer's instructions. […] HCV JFH-1 and human GAPDH RNA transcript levels were determined relative to a standard curve derived from serial dilutions of plasmid containing the JFH-1 HCV cDNA or the human GAPDH coding sequence, respectively. […]
To confirm HCV clearance, drug treatments were subsequently discontinued on day 70 and HCV RNA levels were monitored for an additional 30 days.

O=C1[C@H](CC[C@H](O)c2ccc(F)cc2)[C@@H](c2ccc(O)cc2)N1c1ccc(F)cc1 [ezetimibe, 1-(4-fluorophenyl)-(3R)-[3-(4-fluorophenyl)-(3S)-hydroxypropyl]-(45)-(4-hydroxyphenyl)-2-azetidinone]
sg1b HCV RNA steady-state levels [1]: did not inhibit HCV subgenomic RNA replication; also recorded: no significant reduction
HCV infection initiation [2]: inhibits HCV infection initiation
cellular toxicity (adenylate kinase release) ([3]; increasing doses): did not inhibit cell proliferation or induce cellular toxicity
cytotoxicity ([3]; treatment of Huh7 cells for 12 hours, concentrations tested): not cytotoxic
intracellular HCV steady-state RNA levels [4]: did not reduce
